Assay results published in patent US8865206B1, “Surface modified multilayered nanostructures for dermal delivery” (Florida A&M University, priority 2010, dated 2014).

What was measured:
Assay type in all cases: physicochemical
[1] = In vitro drug release through porous membrane, Franz diffusion cells; conditions: within 24 hours of NPS application; 0.5% w/v Volpo in PBS (pH 7.4), 32° C.
Procedure: In vitro drug release studies of KP-NPS, SP-NPS, SP+KP-NPS, KP-NPS-OA, SP-NPS-OA and SP+KP-NPS-OA were performed to investigate the amount of drug released from NPS or NPS-OA. A porous membrane of MWCO at 50,000 Da (SIGMA-ALDRICH Co., St. Louis, Mo.) was used. The membrane was mounted between the donor and receiver compartments of Franz diffusion cells (N. Ghouchi Eskandar, S. Simovic, C. Prestidge, Nanoparticle coated submicron emulsions: sustained in-vitro release and improved dermal delivery of All-trans-retinol, Pharm Res, 26 (2009) 1764-1775).
The NPS dispersion was applied evenly on the surface of the membrane in the donor compartment. […] At predetermined time intervals (e.g., 1, 2, 4, 6, 8, 12, 22, 24, 48 and 72 hours), 0.5 ml samples were collected from the receiver compartment and replaced with fresh buffer solution. The samples collected from receiver compartment were analyzed for drug content using the HPLC method.

[2] = Entrapment efficiency using vivaspin columns; conditions: in NPS; unaffected by surface modification
Procedure: The NPS and NPS-OA (0.5 ml) were placed on top of the vivaspin centrifuge filter membrane and centrifuged at 4,500 rpm for fifteen (15) minutes. The amount of SP and KP present in the aqueous phase was estimated using HPLC.

[3] = Solubility test in selected receiver fluids

release of drug from NPS [1] [%]	entrapment efficiency [2]	solubility ([3]; 0.1% w/v Volpo 20 in PBS (pH 7.4), 1 mg/ml)	solubility ([3]; 0.5% w/v Volpo 20 in PBS (pH 7.4), 1 mg/ml)	solubility ([3]; 5% w/v BSA in PBS (pH 7.4))	solubility ([3]; SP and KP mixed together in PBS (pH 7.4) containing 10% w/v ethanol)	solubility ([3]; ethanol)	Compound
> 75	–	–	–	–	–	–	CC(C(=O)O)c1cccc(C(=O)c2ccccc2)c1 (centres unmarked) [KP, Ketoprofen]
34	92.81%±2.17	insoluble	soluble	soluble	precipitation was observed	soluble	Spantide II
